Experimental data as given in US20250368617A1, “NOVEL RAS INHIBITORS” (KHR BIOTEC GMBH, priority 2022, published 2025).

Columns and labels:
HRAS G12V = biological target: T1, HRAS G12V (Homo sapiens, UniProt P01112, G12V); assay: NanoBit assay for RAS activation (LgBiT-HRAS G12V / SmBiT-CRAF RAS binding domain); type: cell-based; conditions: HRAS G12V with CRAF RBD (1-149); 2 h with inhibitor in serum free DMEM; DMSO set as 1
T1 construct: K, N and HRAS G12V (full length) was cloned with Xho I and BgI II to LgBit; expressed in transfected cells
Protocol: (§1) FIGS. 1a) and 1b): NanoBit assay for RAS activation (KRAS G12V, NRAS G12V, HRAS G12V) N-terminal LgBiT and C-terminal SmBiT construct was purchased from Promega and K, N and HRAS G12V (full length) was cloned with Xho I and BgI II to LgBit and CRAF RAS binding domain (1-149) was cloned with EcoRI and BgI II to SmBit. For transfections, 1 μg or 2 μg of (12 well/6 well) plasmids were transfected into cells with 0.5 mM of PEI reagent in 100 μl or 200 μl PBS. One day after transfection, cells were harvested and seeded into 96 well white plates, half area (Greiner). After an additional day the medium was changed to serum free DMEM and the cells were incubated for 2 h with inhibitors. NanoGlo assay was performed according to the manufacturer's instructions. The luminescence was measured using Tecan infinite (Tecan). DMSO-treated cells were set as 1. The results shown are mean mean±SEM from at least 3 independent experiments.

sNF96.2 = assay: RASOpathie-Model; MTT assay for cell viability in 96 well cell culture plate (FIG. 5); type: cell-based; conditions: 48 h treatment
Protocol: (§2) Metabolic activity was quantified using Cell Proliferation Kit I (Roche, Basel, Switzerland). Cells were seeded in 96-well cell culture plates, using 5000 cells per well for NCI-H358 cells. After treatment, 10 μl of MTT solution was added and incubated for 2 h in CO2 incubator. Then 100 μl of solubilization buffer was added to each well and incubated overnight in CO2 incubator. Cell viability, assessed by the amount of metabolized MTT, was quantified by measuring absorbance at 570 nm.
FIG. 5: RASOpathie-Model of GSK2126458; MTT assay for cell viability in 96 well cell culture plate
Cells were treated with GSK2126458 for 48 h and cell viability was evaluated by MTT assay. DMSO-treated cells were set as 1. The results shown are mean±SEM from 3 independent experiments.

[1] = test system: LgBit-KRAS mutants (G12V, G12C, G12D, G12C/Y96D, G13C, G13D, G13S, Q61K and Q61R); assay: NanoBit assay for inhibition of RAS activation, KRAS mutants in HeLa cells; type: cell-based; conditions: LgBit-KRAS mutants and SmBit-CRAF-RBD, 2 h in serum-free DMEM
Protocol: FIG. 3: NanoBit assay for inhibition of RAS activation (G12V, G12C, G12D, G12C/Y96D, G13C, G13D, G13S, Q61K and Q61R)
NanoBiT assay for the RAS GTP-loading was performed in HeLa cells transfected with LgBit-KRAS mutants and SmBit-CRAF-RBD. Cells were treated with GSK2126458 according to the invention for 2 h in serum-free DMEM. After incubation, the substrate for NanoLuc was added, and the luminescence was measured in a multiplate reader. Data were normalized to cells transfected with the indicated mutant and exposed to DMSO for 2 h. DMSO-treated cells were set as 1. The bars represent mean±SEM from 3 independent experiments.

T24 cells = assay: Soft agar colony formation assay with MTT staining; type: cell-based; conditions: Homo sapiens, T-24, growth in soft agar, absorbance at 570 nm
Protocol: as §2
(§3) MTT assay for the growth of different tumor cell lines with RAS mutations in soft agar with GSK2126458. Shown are data from three independent experiments.
(§4) NCI-H358, H358, H2122, ASPC-1, HCT-116, T24 and HT1080 cells were used for the soft […] agar colony formation assay. After the treatment with GSK2126458, the colonies were stained with MTT and the value was quantified by measuring absorbance at 570 nm after solubilization. The results represent mean±SD from 3 independent experiments.

HT1080 cells = assay: Soft agar colony formation assay with MTT staining; type: cell-based; conditions: Homo sapiens, HT-1080, growth in soft agar, absorbance at 570 nm
Protocol: as §2, §3, §4

NCI-H2122 cells = assay: Soft agar colony formation assay with MTT staining; type: cell-based; conditions: Homo sapiens, growth in soft agar, absorbance at 570 nm
Protocol: as §2, §3, §4

HCT-116 cells = assay: Soft agar colony formation assay with MTT staining; type: cell-based; conditions: Homo sapiens, growth in soft agar, absorbance at 570 nm
Protocol: as §2, §3, §4

ASPC1 cells = assay: Soft agar colony formation assay with MTT staining; type: cell-based; conditions: Homo sapiens, growth in soft agar, absorbance at 570 nm
Protocol: as §2, §3, §4

NCI-H358 cells = assay: Soft agar colony formation assay with MTT staining; type: cell-based; conditions: Homo sapiens, growth in soft agar, absorbance at 570 nm
Protocol: as §2, §3, §4

KRAS G12V = biological target: T2, KRAS G12V (Homo sapiens, UniProt P01116, G12V); assay: NanoBit assay for RAS activation (LgBiT-KRAS G12V / SmBiT-CRAF RAS binding domain); type: cell-based; conditions: KRAS G12V with CRAF RBD (1-149); 2 h with inhibitor in serum free DMEM; DMSO set as 1
T2 construct: K, N and HRAS G12V (full length) was cloned with Xho I and BgI II to LgBit; expressed in transfected cells
Protocol: as §1

NRAS G12V = biological target: T3, NRAS G12V (Homo sapiens, UniProt P01111, G12V); assay: NanoBit assay for RAS activation (LgBiT-NRAS G12V / SmBiT-CRAF RAS binding domain); type: cell-based; conditions: NRAS G12V with CRAF RBD (1-149); 2 h with inhibitor in serum free DMEM; DMSO set as 1
T3 construct: K, N and HRAS G12V (full length) was cloned with Xho I and BgI II to LgBit; expressed in transfected cells
Protocol: as §1

[2] = test system: p110a, p110β, p110γ, p110σ, and the mTOR1 and mTOR2 complexes and DNA-PK; conditions: ATP-competitive, reversible; cited from earlier work
KRAS dependent cells = assay: MTT assay for cell viability in 96 well cell culture plate (FIG. 4); type: cell-based; conditions: 48 h treatment; incl. G12C/Y96D mutation; DMSO set as 1
Protocol: as §2
FIG. 4: MTT assay for cell viability in 96 well cell culture plate Cells were treated with GSK2126458 for 48 h and cell viability was evaluated by MTT assay. […]. DMSO-treated cells were set as 1. The results shown are mean±SEM from 3 independent experiments.

T3 sequence (P01111 1-186 G12V limits assumed): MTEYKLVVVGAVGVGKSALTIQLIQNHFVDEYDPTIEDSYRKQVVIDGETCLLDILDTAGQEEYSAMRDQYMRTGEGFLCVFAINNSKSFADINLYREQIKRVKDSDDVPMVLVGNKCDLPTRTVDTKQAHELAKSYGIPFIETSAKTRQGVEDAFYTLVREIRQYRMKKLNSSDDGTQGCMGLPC
T2 sequence (P01116 1-186 isoform P01116-2 G12V limits assumed): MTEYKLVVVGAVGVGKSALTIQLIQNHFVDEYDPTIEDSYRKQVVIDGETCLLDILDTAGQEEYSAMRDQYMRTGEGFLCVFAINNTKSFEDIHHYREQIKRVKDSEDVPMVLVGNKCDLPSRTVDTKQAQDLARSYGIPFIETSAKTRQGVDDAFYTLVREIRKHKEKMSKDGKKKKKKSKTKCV
T1 sequence (P01112 1-186 G12V limits assumed): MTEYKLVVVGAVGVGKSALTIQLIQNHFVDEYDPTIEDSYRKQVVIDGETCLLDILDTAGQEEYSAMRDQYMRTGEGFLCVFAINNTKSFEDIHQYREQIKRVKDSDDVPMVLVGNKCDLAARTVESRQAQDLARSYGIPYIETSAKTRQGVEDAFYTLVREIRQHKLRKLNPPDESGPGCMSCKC

In the case of `COc1ncc(-c2ccc3nccc(-c4ccnnc4)c3c2)cc1NS(=O)(=O)c1ccc(F)cc1F` [GSK2126458, 2,4-Difluoro-N-[2-methoxy-5-[4-(4-pyridazinyl)-6-quinolinyl]-3-pyridinyl]benzenesulfonamide], the “inhibition of H-RAS activation (NanoBit luminescence)” value (HRAS G12V) is reported as “inhibits”, the IC50 (sNF96.2) is reported as 3.8 µM and the “inhibition of RAS activation (RAS GTP-loading, NanoBiT)” value [1] is reported as “inhibits different RAS-isoforms”. For the same compound, the IC50 (T24 cells) was 228 µM, the IC50 (HT1080 cells) was 86.9 µM and the IC50 (NCI-H2122 cells) was 4.51 µM. For the same compound, the IC50 (HCT-116 cells) was 47.4 µM, the IC50 (ASPC1 cells) was 10.8 µM and the IC50 (NCI-H358 cells) was 11.5 µM. The “inhibition of K-RAS activation (NanoBit luminescence)” value (KRAS G12V) was “inhibits”, the “inhibition of N-RAS activation (NanoBit luminescence)” value (NRAS G12V) was “inhibits” and the “activity against PI3K isoforms, mTOR complexes and DNA-PK” value [2] was “subnanomolar activity”. The “cell viability (MTT)” value (KRAS dependent cells) was “inhibits KRAS dependent cells irrespective of the presence of mutation”.
